Our source for the IC50 values is ChEMBL document CHEMBL1130837, “8-Aminoquinolines as anticoccidials--II” (Bioorg Med Chem Lett, 1998).

Molecules are shown by their SMILES.

Holding throughout (assay type): functional, organism-based
Assay [1] is filed under the species Gallus gallus. In words: Inhibitory activity against second generation merozoids of Eimeria tenella in chick hepatocyte assay; value given as 0.2-1.0.
The species entered for assay [2] is Gallus gallus. In words: Inhibitory activity against second generation merozoids of Eimeria tenella in chick hepatocyte assay.
The species entered for assay [3] is Gallus gallus. In words: Inhibitory activity against second generation merozoids of Eimeria tenella in chick hepatocyte assay in the presence of iproniazid; Value given as 0.08-0.016.
The species entered for assay [4] is Gallus gallus. In words: Inhibitory activity against second generation merozoids of Eimeria tenella in chick hepatocyte assay in the absence of inhibitor; Value given as 0.08-0.016.
For assay [5], the species on record is Gallus gallus. The experiment in a line: Inhibitory activity against second generation merozoids of Eimeria tenella in chick hepatocyte assay in the presence of Tranylcypromine; Value given as 0.08-0.016.
Assay [6] is filed under the species Gallus gallus. The experiment in a line: Inhibitory activity against second generation merozoids of Eimeria tenella in chick hepatocyte assay in the presence of Tranylcypromine; Value given as 1-5.
For assay [7], the species on record is Gallus gallus. The experiment in a line: Inhibitory activity against second generation merozoids of Eimeria tenella in chick hepatocyte assay in the presence of Ketoconazole at 5 ug/ml; value given as 0.2-1.0.
The species named for assay [8] is Gallus gallus. The experiment in a line: Inhibitory activity against second generation merozoids of Eimeria tenella in chick hepatocyte assay in the presence of SKF-525A at 5 ug/ml; value given as 0.2-1.0.
The species entered for assay [9] is Gallus gallus. The experiment in a line: Inhibitory activity against second generation merozoids of Eimeria tenella in chick hepatocyte assay in the presence of alpha-naphthoflavone at 5 ug/ml; value given as 0.2-1.0.
The species entered for assay [10] is Gallus gallus. In words: Inhibitory activity against second generation merozoids of Eimeria tenella in chick hepatocyte assay in the absence of inhibitor; value given as 0.2-1.0.
The species named for assay [11] is Gallus gallus. In words: Inhibitory activity against second generation merozoids of Eimeria tenella in chick hepatocyte assay in the presence of iproniazid; Value given as 1-5.
Assay [12] is filed under the species Gallus gallus. In words: Inhibitory activity against second generation merozoids of Eimeria tenella in chick hepatocyte assay in the presence of iproniazid; value given as 0.004-0.0008.
For assay [13], the species on record is Gallus gallus. The experiment in a line: Inhibitory activity against second generation merozoids of Eimeria tenella in chick hepatocyte assay in the presence of Tranylcypromine; value given as 0.004-0.0008.
For assay [14], the species on record is Gallus gallus. The experiment in a line: Inhibitory activity against second generation merozoids of Eimeria tenella in chick hepatocyte assay in the absence of inhibitor; value given as 0.004-0.0008.

Take `COc1cc(NCCCC2(c3ccc(F)cc3)OCCO2)c2ncccc2c1`: the IC50 in the assay listed under Gallus gallus [1] was determined as 0.2 p.p.m. Consider `COc1cc(NCCCC2(C)OCCO2)c2ncccc2c1`, for which the IC50 in the assay listed under Gallus gallus [2] is given as over 1 p.p.m.

In turn, `COc1cc(NCCCC/C=N/Oc2ccccc2)c2ncccc2c1` yielded an IC50 in the assay filed under Gallus gallus [1] of 0.2 p.p.m. In turn, `COc1cc(NCCCC/C=N/OC(=O)c2ccccc2)c2ncccc2c1` displayed an IC50 in the assay filed under Gallus gallus [1] of 0.2 p.p.m. The same measure, in the same setting: as for `C=CCO/N=C/CCCCNc1cc(OC)cc2cccnc12`, the figure is 0.2 p.p.m.

As to `CCO/N=C/CCCCNc1cc(OC)cc2cccnc12`, the IC50 in the assay filed under Gallus gallus [1] is 0.2 p.p.m.

In the assay listed under Gallus gallus [2], `COc1cc(NCCCC/C=N/OCC(=O)O)c2ncccc2c1` gave an IC50 of over 1 p.p.m. `COc1cc(NCCCC/C=N/OC(C)(C)C)c2ncccc2c1`: the IC50 in the assay listed under Gallus gallus [1] was found to be 0.2 p.p.m. Compound `COc1cc(NCCCCC(=O)O)c2ncccc2c1` showed an IC50 in the assay listed under Gallus gallus [2] of over 1 p.p.m. As to `CO/N=C/CCCCNc1cc(OC)cc2cccnc12`, the IC50 in the assay listed under Gallus gallus [1] was found to be 0.2 p.p.m.

Turning to `COc1cc(NCCCC2OCCO2)c2ncccc2c1`, the IC50 in the assay listed under Gallus gallus [2] is reported as over 1 p.p.m. `CC[C@@H](C(=O)[C@@H](C)[C@@H](O)[C@H](C)[C@@H]1O[C@@H]([C@@H](CC)C(=O)O)CC[C@@H]1C)[C@H]1O[C@]2(C=C[C@@H](O)[C@]3(CC[C@@](C)([C@H]4CC[C@](O)(CC)[C@H](C)O4)O3)O2)[C@H](C)C[C@@H]1C` [SALINOMYCIN]: the IC50 in the assay filed under Gallus gallus [3], in the assay filed under Gallus gallus [4] and in the assay listed under Gallus gallus [5] was 0.016 p.p.m in each case.

`COc1cc(NCCCCC2OCCO2)c2ncccc2c1` registered an IC50 in the assay listed under Gallus gallus [1] of 0.2 p.p.m. Compound `COc1cc(NCCCC/C=N/O)c2ncccc2c1` returned an IC50 in the assay filed under Gallus gallus [2] of over 1 p.p.m. Regarding `COc1cc(NCCCCCNC(C)C)c2ncccc2c1` [PENTAQUINE], the IC50 in the assay filed under Gallus gallus [6] is 1 p.p.m; in the assay filed under Gallus gallus [7], 0.2 p.p.m; in the assay filed under Gallus gallus [8], 0.2 p.p.m; in the assay filed under Gallus gallus [9], 0.2 p.p.m; in the assay listed under Gallus gallus [10], 0.2 p.p.m; in the assay listed under Gallus gallus [11] it was 1 p.p.m.

With `COc1cc(NCCCC/C=N/OCc2ccc([N+](=O)[O-])cc2)c2ncccc2c1`, the IC50 in the assay filed under Gallus gallus [2] is recorded as over 1 p.p.m. Turning to `CCCCCCCCCCOc1cc2c(O)c(C(=O)OCC)cnc2cc1OCC` [DECOQUINATE], the IC50 in the assay listed under Gallus gallus [12], in the assay listed under Gallus gallus [13] and in the assay filed under Gallus gallus [14] was 0.0008 p.p.m throughout. Consider `N#CC(c1ccc(Cl)cc1)c1c(Cl)cc(-n2ncc(=O)[nH]c2=O)cc1Cl` (stereo not given) [DICLAZURIL], for which the IC50 in the assay listed under Gallus gallus [12], in the assay listed under Gallus gallus [13] and in the assay listed under Gallus gallus [14] was 0.0008 p.p.m each time. In the assay listed under Gallus gallus [2], `COc1cc(NCCCCCO)c2ncccc2c1` yielded an IC50 of over 1 p.p.m.
